system: HCV replicon; experiment: Replicon based assay of HCV replication inhibition (NPT ELISA); format: cell-based, Hepatitis C virus; conditions: Hepatitis C virus, Huh-7, 72 h, Table I; Huh-7 HCV replicon-containing cells, three days; read-out: Activity
Method in brief: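 NPT (neomycin phosphotransferase) content, proportional to replicon replication, quantified by capture ELISA on day four. Before that, replicon-bearing Huh-7 cells in G418-free screening medium were exposed three days at 37° C to compound, typically six doses from 10 to 0.03 micromolar, with equal DMSO across wells.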

`CCCCCOc1ccc(Nc2nc(-c3ccc4c(c3)NC(=O)CO4)cs2)cc1C(F)(F)F` [compound 199, 6-(2-(3-(trifluoromethyl)-4-(pentyloxy)phenylamino)thiazol-4-yl)-2H-benzo[b][1,4]oxazin-3(4H)-one] and `CCCCCCCCOc1ccc(Nc2nc(-c3cccnc3)cs2)cc1` [compound 93, N-(4-(octyloxy)phenyl)-4-(pyridin-3-yl)thiazol-2-amine] cannot be ordered by EC50: < 1000 nM for the first, < 1000 nM for the second.

`Fc1ccc(-c2csc(Nc3ccc(Oc4ccccc4)cc3)n2)cc1` [compound 144, 4-(4-fluorophenyl)-N-(4-phenoxyphenyl)thiazol-2-amine] and `c1ccc(Oc2cccc(Nc3nc(-c4cccnc4)cs3)c2)cc1` [compound 88, N-(3-phenoxyphenyl)-4-(pyridin-3-yl)thiazol-2-amine] cannot be ordered by EC50: < 1000 nM for the first, < 1000 nM for the second.

`CCCCOc1ccc(Nc2nc(-c3cccnc3)cs2)cc1` [compound 91, N-(4-butoxyphenyl)-4-(pyridin-3-yl)thiazol-2-amine] was tested, and the EC50 was < 1000 nM.

same assay, conditions: Hepatitis C virus, Huh-7, 72 h, Table III; Huh-7 HCV replicon-containing cells, three days; read-out: Activity

`CCCCCCCCOc1ccc(Nc2nc(-c3ccc(-c4csnn4)cc3)cs2)cc1C(F)(F)F` [compound 668, 4-(4-(1,2,3-thiadiazol-4-yl)phenyl)-N-(3-(trifluoromethyl)-4-(octyloxy)phenyl)thiazol-2-amine] and `CCCCCCCCOc1ccc(Nc2nc(-c3ccc(C#N)nc3)cs2)cc1C(F)(F)F` [compound 613, 5-(2-(3-(trifluoromethyl)-4-(octyloxy)phenylamino)thiazol-4-yl)pyridine-2-carbonitrile] cannot be ordered by EC50: < 1000 nM for the first, < 1000 nM for the second.

`CCCCCCCCOc1ccc(Nc2nc(-c3cccc4cccnc34)cs2)cc1C(F)(F)F` [compound 708, N-(3-(trifluoromethyl)-4-(octyloxy)phenyl)-4-(quinolin-8-yl)thiazol-2-amine] and `CCCCCCCCOc1ccc(Nc2nc(-c3cccc(S(N)(=O)=O)c3)cs2)cc1C(F)(F)F` [compound 711] cannot be ordered by EC50: < 1000 nM for the first, < 1000 nM for the second.

`CC(C)=CCC/C(C)=C/COc1ccc(Nc2nc(-c3cccnc3)cs2)cc1C(F)(F)F` [compound 690, N-(4-((E)-3,7-dimethylocta-2,6-dienyloxy)-3-(trifluoromethyl)phenyl)-4-(pyridin-3-yl)thiazol-2-amine] and `CNc1ccc(-c2csc(Nc3ccc(OC4CCCC4)c(C(F)(F)F)c3)n2)cn1` [compound 537, 5-(2-(4-(cyclopentyloxy)-3-(trifluoromethyl)phenylamino)thiazol-4-yl)-N-methylpyndin-2-amine] cannot be ordered by EC50: < 1000 nM for the first, < 1000 nM for the second.

Going from `CCCCCCCCN(C)c1ccc(Nc2nc(Cc3ccc(F)cc3)cs2)cc1` [compound 632, N^1-(4-(4-fluorobenzyl)thiazol-2-yl)-N^4-methyl-N^4-octylbenzene-1,4-diamine] to `CCCCCCCCOc1ccc(Nc2nc(Cc3ccc(F)cc3)cs2)cc1C(F)(F)F` [compound 629, 4-(4-fluorobenzyl)-N-(3-(trifluoromethyl)-4-(octyloxy)phenyl)thiazol-2-amine], the EC50 falls from > 10000 nM to < 1000 nM.

`CCCCCCCCN(C)c1ccc(Nc2nc(-c3ccc(Cl)s3)cs2)cc1C(F)(F)F` [compound 570, N^4-(4-(5-chlorothiophen-2-yl)thiazol-2-yl)-2-(trifluoromethyl)-N^1-methyl-N^1-octylbenzene-1,4-diamine] and `CCCCCCCc1ccc(Nc2nc(-c3ccc(Cl)cc3)cs2)cc1` [compound 567, 4-(4-chlorophenyl)-N-(4-heptylphenyl)thiazol-2-amine] cannot be ordered by EC50: < 1000 nM for the first, < 1000 nM for the second.

same assay, conditions: Hepatitis C virus, replicon based assay of HCV replication inhibition; Table II; read-out: Activity

`CCCCCCCOc1ccc(Nc2nc(-c3ccccc3OC)cs2)cc1` [compound 375, N-(4-(heptyloxy)phenyl)-4-(2-methoxyphenyl)thiazol-2-amine] and `CCCCCCCOc1ccc(Nc2nc(-c3ccccn3)cs2)cc1` [compound 397, N-(4-(heptyloxy)phenyl)-4-(pyridin-2-yl)thiazol-2-amine] cannot be ordered by EC50: < 1000 nM for the first, < 1000 nM for the second.

First: CCCCCCCCOc1ccc(Nc2nc3c(s2)Cc2ccccc2-3)cc1 [compound 485, N-(4-(octyloxy)phenyl)-8H-indeno[1,2-d]thiazol-2-amine]
Second: CCCCCCCCOc1ccc(Nc2nc(Cc3cccc(F)c3)cs2)cc1 [compound 516, 4-(3-fluorobenzyl)-N-(4-(octyloxy)phenyl)thiazol-2-amine]
The EC50 of the first is lower: < 1000 nM for the first, > 10000 nM for the second.

`CCCCCOc1ccc(Nc2nc(-c3cnc4scc(C)n34)cs2)cc1C(F)(F)F` [compound 227, 4-(3-methylimidazo[1,2-b]thiazol-5-yl)-N-(4-(pentyloxy)-3-(trifluoromethyl)phenyl)thia-zol-2-amine] and `CCCCCOc1ccc(Nc2nc(-c3ccc(C(=O)NC4CC4)nc3)cs2)cc1C(F)(F)F` [compound 301, N-cyclopropyl-5-(2-(4-(pentyloxy)-3-(trifluoromethyl)phenylamino)thiazolo-4-yl)picolinamide] cannot be ordered by EC50: < 1000 nM for the first, < 1000 nM for the second.

`CCCCCCCOc1ccc(Nc2nc(-c3ccc(NC(C)=O)cc3)cs2)cc1` [compound 438, N-(4-(2-(4-(heptyloxy)phenylamino)thia-zol-4-yl)phenyl)acetamide] and `CCCCCCOc1ccc(Nc2nc(-c3ccc(C)nc3)cs2)cc1` [compound 455, N-(4-(hexyloxy)phenyl)-4-(6-methylpyridin-3-yl)thiazol-2-amine] cannot be ordered by EC50: < 1000 nM for the first, < 1000 nM for the second.

Going from `CCOC(=O)c1ccc(Nc2nc(-c3ccc(CC(=O)O)cc3)c(C)s2)cc1` [compound 342, 2-(4-(2-(4-(ethoxycarbonyl)phenylamino)-5-methylthiazol-4-yl)phenyl)acetic acid] to `CCCCCCCCOc1ccc(Nc2nc(-c3ccc(-c4ccccn4)s3)cs2)cc1` [compound 387, N-(4-(octyloxy)phenyl)-4-(5-(pyridin-2-yl)thiophen-2-yl)thiazol-2-amine], the EC50 falls from > 10000 nM to < 1000 nM.

`CCCCCCCOc1ccc(Nc2nc(CC)cs2)cc1` [compound 403, 4-ethyl-N-(4-(heptyloxy)phenyl)thiazol-2-amine] and `CCCCCCCCOc1ccc(Nc2nc(Cl)cs2)cc1` [compound 479, 4-chloro-N-(4-(octyloxy)phenyl)thiazol-2-amine] cannot be ordered by EC50: < 1000 nM for the first, < 1000 nM for the second.

`CCCCCOc1ccc(Nc2nc(CN3CCC(N(C)C)C3)cs2)cc1F` (centres unmarked) [compound 287, 4-((3-(dimethylamino)pyrrolidin-1-yl)methyl)-N-(3-fluoro-4-(pentyloxy)pheenyl)thiazol-2-amine] and `CCCCCOc1ccc(Nc2nc(CN3CCC[C@H]3C(=O)O)cs2)cc1C(F)(F)F` [compound 268, (S)-1-((2-(4-(pentyloxy)-3-(trifluoromethyl)phenyl-amino)thiazol-4-yl)methyl)pyrrolidine-2-carboxylic acid] cannot be ordered by EC50: < 1000 nM for the first, < 1000 nM for the second.

`CC(C)COc1ccc(Nc2nc(-c3cccnc3)cs2)cc1C(F)(F)F` [compound 239, N-(4-isobutoxy-3-(trifluoromethyl)phenyl)-4-(pyridin-3-yl)thiazol-2-amine] was tested, and the EC50 was < 1000 nM.

same assay, conditions: Hepatitis C virus, replicon based assay of HCV replication inhibition; Table IV; read-out: Activity

`FC(F)(F)c1cc(Nc2nc(-c3cnccn3)cs2)ccc1OCCCCc1cccs1` [compound 941, N-(4-(4-(thiophen-2-yl)butoxy)-3-(trifluoromethyl)phenyl)-4-(pyrazin-2-yl)thiazol-2-amine] and `O=C(O)Cc1ccc(-c2csc(Nc3ccc(OCCCCc4cccs4)c(C(F)(F)F)c3)n2)s1` [compound 925, 2-(5-(2-(4-(4-(thiophen-2-yl)butoxy)-3-(trifluoromethyl)phenylamino)thiazol-4-yl)thiophen-2-yl) acetic acid] cannot be ordered by EC50: < 1000 nM for the first, < 1000 nM for the second.

`COc1ncc(-c2csc(Nc3ccc(N4CCC5CCCCC5C4)c(C(F)(F)F)c3)n2)cn1` (centres unmarked) [compound 781, N-(3-(trifluoromethyl)-4-(octahydroisoquinolin-2(1H)-yl)phenyl)-4-(2-methoxypyrimidin-5-yl)thiazol-2-amine] and `COc1ncc(-c2csc(Nc3ccc(OCCCCc4ccc(C)cc4)c(C(F)(F)F)c3)n2)cn1` [compound 829, N-(4-(4-p-tolylbutoxy)-3-(trifluoromethyl)phenyl)-4-(2-methoxypyrimidin-5-yl)thiazol-2-amine] cannot be ordered by EC50: < 1000 nM for the first, < 1000 nM for the second.

`CCCCCCCCOc1ccc(Nc2nc(-c3cccnc3)c(C)s2)cc1C(F)(F)F` [compound 836, N-(3-(trifluoromethyl)-4-(octyloxy)phenyl)-5-methyl-4-(pyridin-3-yl)thiazol-2-amine] and `Cc1ccc(CCCCOc2ccc(Nc3nc(-c4cccnc4)c(C)s3)cc2C(F)(F)F)cc1` [compound 845, N-(4-(4-p-tolylbutoxy)-3-(trifluoromethyl)phenyl)-5-methyl-4-(pyridin-3-yl)thiazol-2-amine] cannot be ordered by EC50: < 1000 nM for the first, < 1000 nM for the second.

`C#CCCOc1ccc(Nc2nc(-c3cccnc3)cs2)cc1C(F)(F)F` [compound 937, N-(4-(but-3-ynyloxy)-3-(trifluoromethyl)phenyl)-4-(pyridin-3-yl)thiazol-2-amine] and `FC(F)(F)c1cc(Nc2nc(-c3cccnc3)cs2)ccc1OCCSc1ccccc1` [compound 864, N-(4-(2-(phenylthio)ethoxy)-3-(trifluoromethyl)phenyl)-4-(pyridin-3-yl)thiazol-2-amine] cannot be ordered by EC50: < 1000 nM for the first, < 1000 nM for the second.

`CCCCCCCCOc1ccc(Nc2nc(-c3cnc(OC)nc3)c(F)s2)cc1C(F)(F)F` [compound 946, 5-fluoro-N-(3-(trifluoromethyl)-4-(octyloxy)phenyl)-4-(2-methoxypyrimidin-5-yl)thiazol-2-amine] and `CCCCCCCCOc1ccc(Nc2nc(-c3ccc(F)cc3)c(N)s2)cc1C(F)(F)F` [compound 857, N^2-(3-(trifluoromethyl)-4-(octyloxy)phenyl)-4-(4-fluorophenyl)thiazole-2,5-diamine] cannot be ordered by EC50: < 1000 nM for the first, < 1000 nM for the second.

With `CN1Cc2c(Nc3nc(-c4cccnc4)cs3)cccc2C(c2ccccc2)C1` (centres unmarked) [compound 743, 1,2,3,4-tetrahydro-2-methyl-4-phenyl-N-(4-(pyridin-3-yl)thiazol-2-yl)isoquinolin-8-amine] the EC50 was > 10000 nM.
